Measured values as given in patent US12600725B2 (Memorial Sloan-Kettering Cancer Center, priority 2013, dated 2026).
Where two headings read alike, the source gives them in different places.

What was measured:
CFPAC cells = assay: Cell viability assessment (CellTiter-Glo); assay type: cell-based
PANC-1 cells = assay: Cell viability assessment (CellTiter-Glo); assay type: cell-based
in vivo = assay: in vivo; parameters: species or system mouse
[1] = system: HER2-overexpressing breast cancer cells; assay: Cell cycle, PARP cleavage, apoptosis and Hsp70 induction in HER2-overexpressing breast cancer cells; assay type: cell-based
97 kinases = assay: Kinase screen (Discoverx scanEDGE / KINOMEscan); assay type: binding; conditions: tested at 10 uM
MKN74 cells = assay: Cell viability assessment (CellTiter-Glo); assay type: cell-based
[2] = system: Toll-like receptor 9 (TLR9) trafficking in HEK293 cells transfected with HA-TLR9; assay: TLR9-trafficking assay; assay type: cell-based, human; conditions: 24 h treatment
Protocol: TLR^9-trafficking assay (Yang, Y. et al. Heat shock protein gp96 is a master chaperone for toll-like receptors and is important in the innate function of macrophages. Immunity 26, 215-26 (2007)). HEK 293T cells were transfected with pUNO-hTLR9-HA (Invivogen) using X-tremgene HP (Roche) according to the manufacturer's instructions. At 24 hrs post-transfection, cells were split onto cell culture chamber slides (Lab-Tek). Cells were then treated for 24 hrs with indicated compound at varying concentrations. After treatment, cells were fixed for 20 min in 4% paraformaldehyde in PBS, permeabilized with 0.1% Triton-X 100 in PBS for 10 min, blocked with 3% BSA in PBS for 30 min, followed by staining for 1 hr with an anti-HA antibody (Abcam, ab9110) or a normal rabbit IgG. Cells were washed with PBS, stained with an anti-rabbit-Cy3 antibody (Invitrogen) and finally mounted in the dark at 4° C. with Prolong Gold Antifade reagent (with DAPI). Cells were visualized under a confocal microscope (Leica Upright Confocal SP5). Fluorescence intensity was quantified using MetaMorph Microscopy Automation and Image Analysis Software (Molecular Devices Inc.) and normalized to the cell number.

TC71 Ewing sarcoma cells = assay: Apoptosis assessment (Annexin V / 7AAD); assay type: cell-based
Protocol: (§1) The disclosure provides evidence that Grp94 inhibitors are efficacious in treating cancer with altered expression of the IGF1R and where the receptor is necessary for pathogenesis and tumor progression.
(§2) Cell cycle and apoptosis assessment. Cell cycle and apoptosis were assessed by flow cytometry after single staining with propidium iodide (PI, BD Pharmingen) or double staining with AnnexinV-FITC (BD Pharmingen) and 7AAD (BD Pharmingen), respectively. Specifically, for cell cycle analysis, cells were washed twice with cold PBS and fixed in 70% ethanol overnight at 4° C. Fixed cells were collected at 1800 rpm for 10 min and stained with PBS containing PI and DNase-free RNase A (Sigma-Aldrich) for 1 h at room temperature in the dark. DNA content was measured by BD LSRII flow cytometer and cell further analyzed using program of cell cycle analysis in FloJo (Ashland, OR). The chicken erythrocyte nuclei singlets (CEN, Biosure) were used as the reference. For apoptosis assessment, live cells were collected, washed twice with cold PBS, resuspended in Binding Buffer and stained with AnnexinV-FITC and 7AAD for 15 min at room temperature in the dark. Signals from FL1 and FL3 channels were collected by MACSQuant analyzer and further analyzed using FloJo. Early apoptosis was defined as AnnexinV+/7AAD−, and late apoptosis was observed as AnnexinV+/7AAD+.

A673 Ewing sarcoma cells = assay: Apoptosis assessment (Annexin V / 7AAD); assay type: cell-based
Protocol: as §1, §2

## CC(C)NCCCn1c(Sc2cc(Cl)cc(Cl)c2)nc2c(N)ncnc21 [PU-WS13]
CFPAC cells
  effect on cell growth: modest effect
PANC-1 cells
  effect on cell growth: effectively inhibited the growth
In vivo; 75 mg/kg ip
  AUC0-24h for stomach relative to tumor AUC0-24h: 1.4 fold
  AUC0-24h for the large intestine relative to tumor AUC0-24h: 2 fold
In vivo; female, nu/nu athymic, mouse, plasma, intraperitoneal, 75 mg/kg ip, read-out: PU-WS13 level in the plasma
  concentration at 2 h: 100 µM
In vivo; female, nu/nu athymic, mouse, plasma, 75 mg/kg ip, read-out: AUC0-24 h plasma
  AUC(0-t): 1260 µM·h
In vivo; female, nu/nu athymic, mouse, tumor, intraperitoneal, 75 mg/kg ip, read-out: PU-WS13 level in tumor
  concentration at 2 h: ~850 µM
In vivo; female, nu/nu athymic, mouse, tumor, intraperitoneal, single dose of 75 mg/kg, 24 h post-administration
  concentration at 24 h: 0.5 µM
In vivo; female, nu/nu athymic, mouse, tumor, 75 mg/kg ip, read-out: AUC0-24 h tumor
  AUC(0-t): 9130 µM·h
[1]
  accumulation of cells in sub-G1 phase, time first observed post-treatment: 1 to 2 h
  cells exhibiting markers of early- and late-stage apoptosis: substantial increase
  cleavage of PARP: cleavage of PARP
  feed-back heat shock response (Hsp70 induction): little to no Hsp70 induction
97 kinases
  effect on the tested 97 kinases: no significant effect
MKN74 cells
  sensitivity to Grp94 inhibition: not sensitive
[2]
  TLR9 trafficking: inhibits TLR^9 trafficking
TC71 Ewing sarcoma cells
  induction of apoptosis: capable of inducing apoptosis
A673 Ewing sarcoma cells
  induction of apoptosis: capable of inducing apoptosis
